Experimental findings from a melting point compilation (Tetko et al.; mined from patent text by program, amines drawn as free bases though some values may be those of a salt) are described below.

Molecules are shown by their SMILES.

A word on the melting point: it is the temperature of the solid-liquid transition.

As to `O=c1c2cc(C=NO)ccc2oc2ncccc12`, the melting point lay in the range of 254 to 256 °C.
The value for `COc1cc(Cc2nnc(N[C@H]3CC[C@H](C(C)C)CC3)c3ccccc23)ccn1` was 65 to 66 °C; that for `COc1ccc(C(F)(F)F)cc1-n1c(=O)[nH]c2cc(C(F)(F)F)ccc21` was 226 °C.
Then `CN(C)Cc1cc(Cl)ccc1OCCN(C)Cc1ccc(C(N)=O)cc1`, with 108 to 109 °C; and `CCOC(=O)C(=O)CC(=O)c1cn(Cc2ccc(F)cc2)c2cc(Cl)c(Cl)cc2c1=O`, with 144 to 145 °C.
Then `Cc1ccc(O)c(-c2nc(N(C)C)sc2C(c2ccc(N(C)C)cc2)c2ccc(N(C)C)cc2)c1`, with 189 to 191 °C; and `CN(C)c1nc2cc(Br)ccn2n1`, with 133 to 134 °C; and `CCCCc1oc2ccccc2c1-c1ncc(-c2ccc3cc(OCC(=O)O)ccc3c2)o1`, with 214 to 216 °C.
The compound `COc1ccc(N2CCC(=O)N(c3ccc(C)cc3)CC2)c(-c2ccc(N(C)C)cc2)n1` showed a melting point of 174 to 175 °C.
Compound `CC1C(=O)N(c2ccc(Oc3ccccc3)cc2)C(=S)N1c1ccccc1` (stereo not given) showed a melting point of 132 °C.
The value for `CC=CC(=O)C1=C(C)C(=O)CCC1(C)C` was 68 to 69 °C.
Then `N#Cc1c[nH]c2cc(-c3ccccc3)sc2c1=O`, with above 300 °C; and `ON=C1CCC(c2ccc(Cl)c(Cl)c2)c2ccccc21` (stereo not given), with 159 to 162 °C.
`COc1ccc(C(=O)O)c2c1OCCCO2`: the melting point stood at 186 °C.
The value for `CC(C)(O)CC12C=CC=CC1C(=O)NC2=O` (stereo not given) was 104 to 105 °C; that for `Cc1ccc(C=CC(=O)NN2CC(=O)NC2=O)cc1Cl` was 271 to 273 °C.
The value for `c1ccc(-c2cnc(NC3=NCC4(CN5CCC4CC5)O3)s2)cc1` (stereo not given) was 187 to 189 °C; that for `COc1ccc(C2(O)c3cccc(O)c3C(=O)c3c(O)cccc32)cc1` was 172 to 173 °C.
Take `Cc1ccccc1-c1cc(=O)c2cc(O)ccc2o1`: the melting point was 180 °C.
The value for `CC1COC(c2ccccc2)(c2ccc(N)c([N+](=O)[O-])c2)O1` (stereo not given) was 155 °C.
The value for `Oc1ccc(C(NC(c2ccccc2)c2ccccc2)P(O)O)c(O)c1` (stereo not given) was 250 °C; that for `O=C(O)CNC(=O)n1cc(C(=O)c2ccn3c2CSC3c2cccnc2)c2ccc(-c3ccc(F)cc3)cc21` (stereo not given) was 255 °C.
The value for `CCOC(=O)C1CCc2[nH]c3ccccc3c2C1` (stereo not given) was 95 to 96 °C; that for `CCC1SCCCN1C(=S)Nc1cccc(Br)c1` (stereo not given) was 77 to 79 °C; that for `Nc1nc(NCCc2ccc(Oc3nc(N)n4nc(-c5ccco5)nc4n3)cc2)nc2nc(-c3ccco3)nn12` was 186 to 190 °C.
`CN(C)C1CCc2c(c3ccccc3n2CC(=O)O)C1` (stereo not given) yielded a melting point of 316 to 319 °C.
The value for `C=CC12CCc3cc(NS(=O)(=O)O)ccc3C1CCC1(C)C(O)CCC12` (stereo not given) was 82 to 86 °C; that for `C=CCOc1ccc(C[C@H](NC(C)=O)C(=O)OCC)cc1` was 69 to 70 °C; that for `CN1CCN(c2cccc3c2C[C@H](NC(=O)c2csc(-c4ccccc4)n2)CC3)CC1` was 175 to 176 °C.
Then `CN(Cc1ccccc1)C(=O)Nc1ccc(CN2C(=O)C3CCCC3N(C(=O)CN3C(=O)c4ccccc4C3=O)c3ccccc32)cc1` (stereo not given), with 156 to 158 °C; and `OC(Cn1cncn1)(c1ccc(Cl)cc1)C1(F)CC1` (stereo not given), with 128 °C.
The value for `CCN(CC)C(=O)c1c(OC)ccc2cc(Br)ccc12` was 109 to 110 °C; that for `Cc1cc(CCCOc2c(C)cc(-c3noc(C(N)=O)n3)cc2C)on1` was 177 to 178 °C; that for `CS(=O)(=O)Nc1cc(OCCNC2CCCC2)ccc1C(=O)Nc1ccccc1` was 231 to 232 °C.
Compound `CCCC1=C(C#N)C(c2ccccc2C)c2c[nH]nc2N1` (stereo not given) came in with a melting point of 230 °C.
The value for `Cc1sc2c(Br)c3ccccc3c(-c3ccc(OS(=O)(=O)c4ccc(C(=O)O)c(O)c4)c(C(C)C)c3)c2c1C` was above 225 °C; that for `O=C(Cc1cccc2ccccc12)Nc1cc([C@H]2C[C@@H](NC(=O)c3cccc([N+](=O)[O-])c3)C2)[nH]n1` was 124 °C; that for `Cn1c(=O)cc(-c2cccc(Cl)c2)c2cc(C(O)(c3ccc(Cl)cc3)c3cnccc3N)ccc21` (stereo not given) was 262 °C.
Then `COc1cc(N)c(Cl)cc1C(=O)NCCNCc1ccc(CN(C)C)o1`, with 91 to 93 °C.
Then `Fc1cccc2onc(Nc3ccncc3)c12`, with 160 to 161 °C.
For `COc1ccccc1-c1cc(O)c(-c2ccccc2C(=O)O)nn1`, the melting point is 224 to 227 °C.
Consider `CC#CCOc1ccc(S(=O)(=O)NC)cc1`, for which the melting point lay in the range of 78 to 80 °C.
Regarding `COc1ccc2c(=O)[nH]nc(C)c2c1`, the melting point is 252 to 254 °C.
Then `CCOCCn1cccc1-c1nc(-c2ccc(OC)cc2)c(-c2ccc(OC)cc2)s1`, with 68 to 71 °C.
With `O=c1nc(-c2ccc(F)cc2)c2ccccc2[nH]1`, the melting point was in the range of 294 to 298 °C.
The value for `NNc1ccc2c(=O)n(Cc3ccccc3)cnc2c1` was 165 to 169 °C; that for `CC1(C)OCC(=O)Nc2ccc(-c3cc(F)cc(C#N)c3)cc21` was 238 to 239 °C; that for `O=C(Nc1noc2ccccc12)N1CCN(C(=O)OCc2ccccc2)CC1` was 137 to 138 °C.
Then `CC(C)c1oc(-c2ccccc2)nc1CC(=O)O`, with 141 to 143 °C.
Then `CCc1ccc2c3c(c(=O)oc2c1)CNCC3`, with 80 to 85 °C; and `Cc1c(C(=O)CC(C)C)cc2c(c1C)OC(C(=O)O)C2` (stereo not given), with 117 °C.
`O=C1CCc2cc(CN3CCN(C(=O)c4ccc(Oc5ccc(NC(=O)c6ccc(C(F)(F)F)cc6)cn5)cc4)CC3)ccc2N1` displayed a melting point of 250 to 252 °C.
The value for `CC(=O)Nc1ccc2c(c1)C(=O)N(CCO[N+](=O)[O-])CO2` was 141 to 142 °C; that for `COc1ccc(C(=O)Cc2c(Cl)cncc2Cl)c2c1OCCCO2` was 150 to 151 °C.
The compound `CCN1CCC2(c3cccc(OC)c3)Cc3[nH]c(C(N)=O)c(C)c3CC2C1` (stereo not given) showed a melting point of 176 to 178 °C.
Then `CCOC(=S)c1csc2nc(Cc3ccccc3)cn12`, with 83 to 84 °C.
`CCc1nc2cc(C(F)(F)F)c(Cl)cc2n1-c1ccc(CCOC(=O)NS(=O)(=O)c2cn(C)cn2)cc1` returned a melting point of 204 °C.
The value for `Cc1cc(C(F)(C(F)(F)F)C(F)(F)F)cc(C)c1NC(=O)c1cc(F)c(C#N)c(NC(=O)c2ccccc2)c1F` was 245 to 248 °C.
The value for `Cn1nc(-c2cccc(N3Cc4cc(C(C)(C)C)ccc4C3=O)c2CO)cc(Nc2ccn(C3CNC3)n2)c1=O` was 202 to 204 °C.
The value for `Cc1nn(-c2ccc(F)cc2)cc1C(=O)Nc1ccc(OCC(C)C)c(C#N)c1` was 179 to 180 °C.
As for `COc1cccc(C2C(C(=O)c3ccc(C)cc3)=C(O)C(=O)N2c2ccc(C)nn2)c1` (stereo not given), the melting point was 265 °C.
Then `COC1(C(O)CN2CCC(n3c(=O)[nH]c4ccccc43)CC2)COc2ccccc2O1` (stereo not given), with 143 to 144 °C; and `O=C(Nc1cccc2cnccc12)NC1CC2(CCOCC2)Oc2ccccc21` (stereo not given), with 220 °C.
Then `N#CCCNC(=O)c1cccc(-c2ccc3c(c2)C(c2ccc(Cl)cc2Cl)CO3)c1` (stereo not given), with 130 to 131 °C; and `CCCCC(O)c1ccc2cc(O)ccc2c1` (stereo not given), with 109 to 111 °C.
As for `Cc1nc(-c2ccccc2)nc(-c2cccc([N+](=O)[O-])c2)c1C(=O)N1CCN(C)CC1`, the melting point fell in the range of 153 to 155 °C.
Then `O=C(Nc1ccc(N2CCN(C(=O)Nc3ccc(C(=O)O)cc3Cl)CC2)cc1)Nc1ccccc1F`, with 250 to 253 °C; and `Cn1ncc2c1-c1c(Oc3ccc(CC(=O)O)cc3)sc(C(N)=O)c1CC2`, with 213 to 214 °C; and `CN(CCCCCNC(=NCCSCc1csc(NC(=N)N)n1)NC#N)CCN(Cc1ccc(F)cc1)c1ccccn1`, with 103 °C.
The value for `NC1=NC(c2ccc(OC(F)(F)F)cc2)(c2cccc(-c3cccnc3F)c2)C2=NCCN12` (stereo not given) was 95 to 100 °C.
Take `COC(=O)c1ccc(Oc2ccc3c(c2)CCN(C2CCN(C4CCC4)CC2)C3=O)cc1`: the melting point fell in the range of 269 to 270 °C.
The value for `CC(=O)NC(C)c1ccc(CN2CCN(c3ccc(F)cc3F)CC2)cc1` (stereo not given) was 109 to 111 °C; that for `Cc1ccc(S(=O)(=O)NC(=O)NCCc2ccc(-n3c(C(C)O)nc4cc(C(F)(F)F)c(Cl)cc43)cc2)cc1` (stereo not given) was 220 °C.
The value for `CC(=O)c1cc(Cl)cc(Oc2ncccc2C(=O)NCc2ccc(C(C)(C)O)cc2Cl)c1` was 58 to 60 °C.
Then `CN(C)N=Nc1ccsc1C(N)=O`, with 168 to 170 °C.
The compound `CN1CCN2c3ccc(Cl)cc3C(c3ccco3)=NCC2C1` (stereo not given) displayed a melting point above 240 °C.
Then `O=C(N(C=Cc1ccc(F)cc1)C=Cc1ccc(F)cc1)C1(O)CSc2ccccc21` (stereo not given), with 150 to 151 °C.
The value for `COc1ccc2cc(Oc3cnc(N)nc3N)c(C(C)C)cc2c1` was 170 to 172 °C.
Then `C[C@H](Nc1ncnc2[nH]cnc12)c1oc2ccc(Br)cc2c(=O)c1-c1ccccc1`, with 151 to 154 °C; and `CC(=N)Nc1ccc(NC(C)=O)cc1`, with 131 to 134 °C; and `Fc1cc(CC2(Cc3ccnc(F)c3)c3ccccc3-c3ncncc32)ccn1`, with 171 to 174 °C.
As to `N#CC1CN1C(=O)Oc1ccc([N+](=O)[O-])cc1` (stereo not given), the melting point lay within 100 to 104 °C.
Take `CC(=O)C1CCC2C3CC=C4C=CCCC4(C)C3CCC12C` (stereo not given): the melting point lay within 135 to 136 °C.
The value for `CCOC(=O)N1CCC(N(C)C(=O)c2ccc(Cl)c(Cl)c2)C12CCCCC2` (stereo not given) was 57 to 60 °C; that for `CCON=Cc1ccccc1OCc1ccccc1C(=COC)C(=O)OC` was 86 to 88 °C.
